Measurements as given in US11064658B2, “Method for inducing plants to increase their flavonoid compound content” (Industrial Technology Research Institute, priority 2018, dated 2021).

Legend:
Format in all cases: in vivo
Ixeris chinensis = assay: Al ion stimulation alone or combined with ultraviolet irradiation, hydroponic culture; total flavonoid content of flowers and pedicels; details: for total flavonoid content: flowers and pedicels, compared to control group
Procedure: 1. MS liquid medium was prepared according to the formulation of Table 1 shown above. 2. Different amounts of AlCl3 solution were added to the MS liquid medium prepared above to respectively form MS liquid mediums with AlCl3 final concentrations of 0 mM (control group) and 1.25 mM for ready for use. 3. […] chinensis plants were sampled from the field. Leaves and pedicels of the above-ground part and root of the under-ground part of the […] chinensis plant were wiped and wash with water and the root were allowed in a form of bare root. After that, the whole plant was inserted into a test tube containing the MS liquid medium with AlCl3 prepared above, and the root of the plant was immersed in the liquid medium. 4. At the 73th hour of the immersion, the plants were irradiated with ultraviolet B for 1 hour. The plants were then allowed to recover for 3 hour. After the recovery, the morphological changes of the plants were observed and samples of flowers and pedicels were collected. Then, the collected samples were lyophilized. 5. The collected flowers and pedicels of the fresh plant were extracted with 30% ethanol and subjected to total flavonoid content analysis.

Chrysanthemum morifolium [1] = assay: Al ion stimulation for different lengths of time, hydroponic culture; flavonoid glycoside contents by HPLC; details: whole plants, AlCl3 70, 250, 350 μM, 48, 72, 96 hours, compared to control group, had a dose effect
Procedure: (§1) 1. MS liquid medium was prepared based on the formulation of Table 1 shown in the following. 2. Different amounts of AlCl3 solution were added to the MS liquid medium prepared above to respectively form MS liquid mediums with AlCl3 final concentrations of 0 μM (control group), 70 μM, 250 μM and 350 μM for ready for use. 3. Tissue culture seedlings of Chrysanthemum morifolium (young shoot of Chrysanthemum morifolium) were taken out from solid culture tubes. After that, the solid medium on the root of the plants was washed with water, and the whole plants were inserted into test tubes containing the MS liquid medium with different AlCl3 final concentration prepared above, and the roots of the plants were immersed in the liquid medium. Finally, the above-ground parts of the plants were covered with sealed bags to protect the cuticula on the surfaces of the plant leaves to prevent rapid evapotranspiration of water. 4. After being immersed for 48, 72 and 96 hours, the morphological changes of the plants were observed and the samples of whole plants were collected. Then, the collected samples were lyophilized. 5. After the lyophilization, extraction was performed on the whole plant of Chrysanthemum morifolium. […]

Chrysanthemum morifolium [2] = assay: Al ion stimulation alone or combined with ultraviolet irradiation, solid medium culture; total flavonoid content; details: whole plant, compared to control group
Procedure: 1. Different amounts of AlCl3 were added to the formulation of Table 2 shown above to respectively form MS solid mediums with final concentration of 0 μM (control group) and 350 μM for ready for use. 2. A terminal bud of a tissue culture seedling of Chrysanthemum morifolium (young shoot of Chrysanthemum morifolium) was cut and inserted to a solid medium without addition of the stimulation ion. After the plant had grown roots, the root part of the plant having the root with a length of less than 0.5 cm was inserted to the solid medium prepared above to perform the solid medium culture. 4. On the 41st day of the culture, the plants were irradiated with ultraviolet B for 0, 1, 2 and 4 hours, respectively. The plants were then allowed to recover for 3 hours. After the recovery, the morphological changes of the plants were observed and samples of whole plants (plants stimulated by Al ions alone, plants irradiated with 1 hour of ultraviolet alone, and plants stimulated by Al ions and 1, 2, and 4 hours of ultraviolet irradiation were obtained) were collected. After that, the collected samples were lyophilized. 5. After the lyophilization, extraction was performed on the whole plant. […] Quantitative analysis of total flavonoids was performed on the extracts mentioned above.

Chrysanthemum morifolium [3] = assay: Al ion stimulation at different concentrations for 72 hours, hydroponic culture; flavonoid glycoside contents by HPLC; details: whole plants, AlCl3 100, 150, 200, 250 μM, compared to control group
Procedure: as §1, with “above.” for “in the following.”, “100” for “70”, “150 μM, 200” for “250”, “250” for “350”, “for” for “for 48,”, “72” for “72 and 96”

Chrysanthemum morifolium [4] = assay: Al ion stimulation of flowering plants for 96 hours, soil culture; flavonoid contents of flowers; details: AlCl3 1.25 mM and 2.5 mM, compared to control group
Procedure: 1. AlCl3 solutions with concentrations of 1.25 mM and 2.5 mM were prepared, respectively. 2. The flowering plants of Chrysanthemum morifolium (adult of Chrysanthemum morifolium) cultured by soil culture together with the soil and flower pots where the plants were located, were immersed in the AlCl3 solutions prepared above. 3. After being immersed for 96 hours, the morphological changes of the plants were observed and the samples of flowers were collected and lyophilized. 4. After the lyophilization, extraction was performed on the flowers of Chrysanthemum morifolium. The extraction method used was water extraction, and the dried flowers and deionized water were mixed at a ratio of 1:20 (g/mL) (i.e., 1 g dry weight of flowers was added to 20 mL of deionized water) to form a mixture. Using a condensing heating system, the mixture was heated to boiling for 90 minutes to complete the extraction and obtain an extract solution. The plant residue in the extract solution was removed by filtration, and then the extract solution was further lyophilized to obtain an extract.

Chrysanthemum morifolium [5] = assay: Al ion stimulation alone or combined with ultraviolet irradiation, hydroponic culture; flavonoid glycoside contents by HPLC; details: whole plants, compared to control group
Procedure: 1. MS liquid medium was prepared based on the formulation of Table 1 shown above. 2. Different amounts of AlCl3 solution were added to the MS liquid medium prepared above to respectively form MS liquid mediums with AlCl3 final concentrations of 0 μM (control group) and 250 μM for ready for use. 3. Tissue culture seedlings of Chrysanthemum morifolium (young shoot of Chrysanthemum morifolium) were taken out from solid culture tubes. After that, the solid medium on the roots of the plants were washed with water, and the whole plants were inserted into test tubes containing the MS liquid medium with different AlCl3 final concentration prepared above, and the roots of the plant were immersed in the liquid medium. Finally, the above-ground parts of the plants were covered with sealed bags to protect the cuticula on the surfaces of the plant leaves to prevent rapid evapotranspiration of water. 4. […] The plants were then allowed to recover for 1 hour. After the recovery, the morphological changes of the plants were observed and samples of whole plants were collected. Then, the collected samples were lyophilized. 5. After the lyophilization, extraction was performed on the whole plant of Chrysanthemum morifolium. The extraction method used was water extraction, and the dried plant and deionized water were mixed at a ratio of 1:20 (g/mL) (i.e., 1 g dry weight of plant was added to 20 mL of deionized water) to form a mixture. Using a condensing heating system, the mixture was heated to boiling for 90 minutes to complete the extraction and obtain an extract solution. The plant residue in the extract solution was removed by filtration, and then the extract solution was further lyophilized to obtain an extract. 6. High-performance liquid chromatography was performed on the extract mentioned above to determine the contents of luteolin-7-O-β-D-glycoside and […] which belong to flavonoid compounds.

Chrysanthemum morifolium [6] = assay: Cu ion stimulation alone or combined with ultraviolet irradiation, hydroponic culture; flavonoid glycoside contents by HPLC; details: whole plants, compared to control group
Chrysanthemum morifolium [7] = assay: Zn ion stimulation for 40 days, solid medium culture; flavonoid glycoside contents by HPLC; details: whole plants, Zn ion 15, 30, 45 mM, compared to control group (3 mM)
Procedure: 1. Different amounts of ZnSO4 were added to the formulation of Table 2 shown in the following to respectively form MS solid mediums with different Zn ion final concentration of 3 mM (control group), 15 mM, 30 mM and 45 mM for ready for use. 2. A terminal bud of a tissue culture seedling of Chrysanthemum morifolium (young shoot of Chrysanthemum morifolium) was cut and inserted to the solid medium prepared above (since a rooted plant was not easy to insert into solid medium, the experiment was performed in this way) to perform the solid medium culture. Since Zn is mainly absorbed by the roots of plants, the evaluation only could start after the plant had grown roots. The Zn element could be absorbed and utilized by the plant only after the plant had grown roots. Plants were allowed to absorb zinc during growth and development, thereby causing changes in physiological and compositional components in the plants. 3. After being cultured for 40 days, the morphological changes of the plants were observed and the samples of whole plants were collected. Then, the collected samples were lyophilized. 4. After the lyophilization, extraction was performed on the whole plant of Chrysanthemum morifolium. […]

[8] = AlCl3 250 μM plus ultraviolet B 1 hour at 97th hour, recovery 1 hour
[9] = CuSO4 250 μM plus ultraviolet B 1 hour at 97th hour, recovery 1 hour

[Cl][Al]([Cl])[Cl] [Al ions, AlCl3]
appearance of plants before and after the ultraviolet irradiation, under Al ion stimulation (Ixeris chinensis; AlCl3 1.25 mM, ultraviolet B 1 hour): no significant difference | total flavonoid content (Ixeris chinensis; AlCl3 1.25 mM plus ultraviolet B 1 hour at 73th hour, recovery 3 hour): about 3.5 fold | total flavonoid content (Ixeris chinensis; AlCl3 1.25 mM, Al ions alone): increased | content of apigenin-7-O-β-D-glycoside (Chrysanthemum morifolium [1]): significantly increased | content of luteolin-7-O-β-D-glycoside (Chrysanthemum morifolium [1]): significantly increased | total flavonoid content (Chrysanthemum morifolium [2]; AlCl3 350 μM plus ultraviolet B 1, 2, 4 hours on 41st day, recovery 3 hours): increased | total flavonoid content (Chrysanthemum morifolium [2]; AlCl3 350 μM, Al ions alone): increased | content of apigenin-7-O-β-D-glycoside (Chrysanthemum morifolium [3]): significantly increased about twofold to threefold | content of luteolin-7-O-β-D-glycoside (Chrysanthemum morifolium [3]): significantly increased about twofold to threefold | content of apigenin (Chrysanthemum morifolium [4]): significantly increased | content of apigenin-7-O-β-D-glycoside (Chrysanthemum morifolium [4]): significantly increased | content of luteolin-7-O-β-D-glycoside (Chrysanthemum morifolium [4]): significantly increased | content of apigenin-7-O-β-D-glycoside (Chrysanthemum morifolium [5]; [8]): about 40 fold | content of luteolin-7-O-β-D-glycoside (Chrysanthemum morifolium [5]; [8]): about 40 fold | content of apigenin-7-O-β-D-glycoside (Chrysanthemum morifolium [5]; AlCl3 250 μM, Al ions alone): increased | content of luteolin-7-O-β-D-glycoside (Chrysanthemum morifolium [5]; AlCl3 250 μM, Al ions alone): increased

O=S(=O)([O-])[O-].[Cu+2] [Cu ions, CuSO4]
content of apigenin-7-O-β-D-glycoside (Chrysanthemum morifolium [6]; [9]): about 37 fold | content of luteolin-7-O-β-D-glycoside (Chrysanthemum morifolium [6]; [9]): about 37 fold | content of apigenin-7-O-β-D-glycoside (Chrysanthemum morifolium [6]; CuSO4 250 μM, Cu ions alone): increased | content of luteolin-7-O-β-D-glycoside (Chrysanthemum morifolium [6]; CuSO4 250 μM, Cu ions alone): increased

O=S(=O)([O-])[O-].[Zn+2] [Zn ions, ZnSO4]
content of apigenin-7-O-β-D-glycoside (Chrysanthemum morifolium [7]): significantly increased about sevenfold to eightfold | content of luteolin-7-O-β-D-glycoside (Chrysanthemum morifolium [7]): significantly increased about sevenfold to eightfold
